Assay results from PMC12903857.
Several values for one entry are separate records, joined by “and”; a condition that tells them apart may be missing. Identical values can stand only once.

Tests used:
14-3-3σ [1] = molecular target: T1, 14-3-3σ (Homo sapiens, UniProt P31947); experiment: FA, Kd of 15-mer RAF peptides
T1 sequence (P31947 1-248): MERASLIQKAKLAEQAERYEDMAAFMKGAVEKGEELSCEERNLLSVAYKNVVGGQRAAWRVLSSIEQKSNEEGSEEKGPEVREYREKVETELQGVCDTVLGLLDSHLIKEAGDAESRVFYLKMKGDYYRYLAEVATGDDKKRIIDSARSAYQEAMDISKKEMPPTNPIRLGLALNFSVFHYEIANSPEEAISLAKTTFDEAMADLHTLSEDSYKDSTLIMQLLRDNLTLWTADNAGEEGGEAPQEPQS
Method: (§1) Ea ch compound was measured in triplicates, i n two i ndependent experi ments. Fluorescence anisotropy measurements were performed directly and a€er overnight incubaton at room temperature.
(§2) Fluorescence anisotropy measurements were performed a€er overnight incubaton at room temperature .

14-3-3σ/C-RAF259 [2] = molecular target: T2, 14-3-3σ/C-RAF259 (Homo sapiens, UniProt P31947); experiment: FA protein titration, C-RAF259 peptide; settings: appKd DMSO / appKd compound
Method: The following peptdes were used in the FA selectvity panel:
SOS1 pS1161: FITC-Ahx-PRRRPE{pS}APAESS-CONH2, TSC2 pS1254: FAM-Ahx-LY K S L { p S } V PA A S TA K-CONH2, ARHG2 pS886: FAM-Ahx-PVDPRRR{pS}LPAGDAL-CONH2.
Mass spectrometry dose response assays were performed on a Waters Acquity UPLC/ Xevo G2-XS Q-To f m a s s
samples prior to applicaton on the mass spectrometer. For 19-point MS dose responses, 50 mM compound stocks
transferred in the assay plates.
Assay buﬀer was TRIS (10 mM, pH 8.0) and ﬁnal volume per well was 50
μL, with ﬁnal top concentraton of compounds dose response series at 1 mM.
24 μL of sample were needed for the tme-course
(BSA; Sigma-Aldrich). Final DMSO in the assay was less than 1%. Diluton series of 14-3-3 proteins or compounds
dispensed in the assay plates. […] Ea ch compound was measured in triplicates, i n two i ndependent experi ments. Fluorescence anisotropy measurements were performed directly and a€er overnight incubaton at room temperature. The high
(10 nM) and DMSO or compound (100 µM). Fluorescence anisotropy measurements were performed a€er overnight incubaton at room temperature .

14-3-3σ/B-RAF365 = molecular target: T3, 14-3-3σ/B-RAF365 (Homo sapiens, UniProt P31947); experiment: Intact mass spectrometry assay with B-RAF365 peptide; type: binding; settings: 1 μM compound, 100 nM 14-3-3σ, 5 µM peptide
T3 construct: full-length for mass spectrometry and fluorescence anisotropy assays; made in house; host or cells: E. coli Rosetta 2(DE3)pLysS (14-3-3σ); peptides from Elim Biopharmaceuticals

14-3-3σ/C-RAF259 [3] = molecular target: T2, 14-3-3σ/C-RAF259; experiment: Intact mass spectrometry assay with C-RAF259 phospho-peptide; type: binding; set-up: full-length for mass spectrometry and fluorescence anisotropy assays; made in house; host or cells: E. coli Rosetta 2(DE3)pLysS (14-3-3σ); peptides from Elim Biopharmaceuticals; settings: 1 μM compound, 100 nM 14-3-3σ, 18 µM peptide
14-3-3σ/C-RAF259 [4] = molecular target: T2, 14-3-3σ/C-RAF259; experiment: Fluorescence anisotropy (FA) compound titration; type: binding; settings: 10 nM C-RAF259-FAM 10-mer, 5 μΜ 14-3-3σ, overnight; read-out: Compound titrations EC50 value C-RAF259
pERK [5] = experiment: Lumit immunoassay for pERK levels in HEK293T cells; type: cell-based; settings: for time taken to modulate the pathway: pERK modulation
N-RAS Q61L/C-RAF = settings: HEK293T; 100% = DMSO mBU, 0% = N-RAS/C-RAF R89L
14-3-3σ/C-RAF [6] = molecular target: T4, 14-3-3σ/C-RAF (Homo sapiens, UniProt P31947); settings: HEK293T cells, mBU compound / mBU DMSO
Method: Stabilization of the interaction with a molecular glue was expected to lead to an increase in the intensity of the BRET signal.
Both cell lines were grown in
All compound treatments were 24 hours.
Brieﬂy, HEK293T cells were

14-3-3σ/A-RAF214 = 14-3-3σ/A-RAF214 (Homo sapiens, UniProt P31947); experiment: Intact mass spectrometry assay with A-RAF214 peptide; settings: 1 μM compound, 100 nM 14-3-3σ, 16 µM peptide
Method: as §1, §2

14-3-3σ [7] = molecular target: T1, 14-3-3σ; experiment: Intact mass spectrometry assay, apo (no peptide); type: binding; set-up: full-length for mass spectrometry and fluorescence anisotropy assays; made in house; host or cells: E. coli Rosetta 2(DE3)pLysS, pPROEX HTb vector; settings: 1 μM compound, 100 nM 14-3-3σ
[8] = tested on: 80 peptides representing a diverse set of 14-3-3 clients; experiment: FA selectivity panel, single point; settings: 10.5 μM compound, 100 nM client peptides, overnight; hit = change in anisotropy of more than 15 units
Method: concentraton (50 μM, maximum eﬀect) was used.
giving the anisotropy change (ΔAU ) .
sele tme: 0 ms, gain: optmal).

14-3-3σ/C-RAF [9] = molecular target: T4, 14-3-3σ/C-RAF; experiment: cell-based
C-RAF/C-RAF = settings: with N-RAS Q61L; 100% = DMSO mBU
[10] = Solubility in the assay conditions; type: physicochemical; settings: MS assay conditions
pERK [11] = experiment: Lumit immunoassay for pERK with 14-3-3 C38N mutant; type: cell-based; settings: HEK293T

T4 sequence (P04049 whole entry partner, one chain of several): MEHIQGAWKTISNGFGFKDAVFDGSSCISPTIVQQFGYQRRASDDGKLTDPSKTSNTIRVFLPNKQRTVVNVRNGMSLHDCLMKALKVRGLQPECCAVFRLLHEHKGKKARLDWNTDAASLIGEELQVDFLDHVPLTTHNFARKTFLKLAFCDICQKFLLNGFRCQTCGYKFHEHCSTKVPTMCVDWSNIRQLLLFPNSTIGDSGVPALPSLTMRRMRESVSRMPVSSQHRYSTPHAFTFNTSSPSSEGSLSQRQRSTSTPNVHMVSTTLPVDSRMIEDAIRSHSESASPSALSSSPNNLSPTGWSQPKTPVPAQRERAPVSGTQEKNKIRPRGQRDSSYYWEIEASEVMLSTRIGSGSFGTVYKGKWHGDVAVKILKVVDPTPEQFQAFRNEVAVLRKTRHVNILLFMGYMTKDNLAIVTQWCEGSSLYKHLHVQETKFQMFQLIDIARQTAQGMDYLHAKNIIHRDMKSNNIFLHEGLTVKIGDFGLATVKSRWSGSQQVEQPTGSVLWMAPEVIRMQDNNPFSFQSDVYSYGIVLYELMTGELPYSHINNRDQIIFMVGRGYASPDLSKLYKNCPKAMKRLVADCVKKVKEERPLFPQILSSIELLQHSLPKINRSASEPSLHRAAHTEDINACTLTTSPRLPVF

CC[C@H](C)[C@H](NC(=O)[C@H](CCCNC(=N)N)NC(=O)[C@H](CCC(N)=O)NC(=O)[C@H](CC(C)C)NC(=O)c1ccc2c(c1)C(=O)OC21c2ccc(O)cc2Oc2cc(O)ccc21)C(=O)N[C@@H](CCCNC(=N)N)C(=O)N[C@@H](CO)C(=O)N[C@H](C(=O)N[C@@H](COP(=O)(O)O)C(=O)N[C@H](C(=O)N1CCC[C@H]1C(=O)N[C@@H](CC(N)=O)C(=O)N[C@H](C(=O)N[C@@H](Cc1c[nH]cn1)C(=O)N[C@@H](CCSC)C(=O)N[C@H](C(N)=O)C(C)C)C(C)C)[C@@H](C)O)[C@@H](C)O [A-RAF 15-mer]
Kd (14-3-3σ [1]): 8 to 10 µM

CSCC[C@H](NC(=O)[C@H](Cc1c[nH]cn1)NC(=O)[C@@H](NC(=O)[C@H](CC(N)=O)NC(=O)[C@@H]1CCCN1C(=O)[C@@H](NC(=O)[C@H](COP(=O)(O)O)NC(=O)[C@@H](NC(=O)[C@H](CO)NC(=O)[C@H](CCCNC(=N)N)NC(=O)[C@H](CCC(N)=O)NC(=O)[C@H](CCCNC(=N)N)NC(=O)[C@H](CCC(N)=O)NC(=O)[C@H](CO)NC(=O)c1ccc2c(c1)C(=O)OC21c2ccc(O)cc2Oc2cc(O)ccc21)[C@@H](C)O)[C@@H](C)O)C(C)C)C(=O)N[C@H](C(N)=O)C(C)C [C-RAF 15-mer, 5-FAM-SQRQRST{pS}TPNVHMV-CONH2]
Kd (14-3-3σ [1]): 8 to 10 µM

O=C(CCl)NCC1CCN(S(=O)(=O)Cc2cccc(F)c2)CC1 [Compound 8]
Fold stabilization (100 µM compound), C-RAF259 (10mer) (14-3-3σ/C-RAF259 [2]): lacked an effect | Fold stabilization (100 µM compound), C-RAF259 (10mer) (14-3-3σ/C-RAF259 [2]; listed as (8)): 1 fold | % bound, B-RAF365 (10mer), 1h (14-3-3σ/B-RAF365; 1 h): 0% | % bound, B-RAF365 (15mer), 1h (14-3-3σ/B-RAF365; 1 h): 0% | % bound, B-RAF365 (10mer), 8h (14-3-3σ/B-RAF365; 8 h): 0% | % bound, B-RAF365 (15mer), 8h (14-3-3σ/B-RAF365; 8 h): 0% | % bound, B-RAF365 (10mer), 16h (14-3-3σ/B-RAF365; 16 h): 2.5% | % bound, B-RAF365 (15mer), 16h (14-3-3σ/B-RAF365; 16 h): 0.9% | % bound, B-RAF365 (10mer), 24h (14-3-3σ/B-RAF365; 24 h): 2.5% | % bound, B-RAF365 (15mer), 24h (14-3-3σ/B-RAF365; 24 h): 3.8% | % bound, C-RAF259 (11mer), 1h (14-3-3σ/C-RAF259 [3]; 1 h): 2.9% and 0% | % bound, C-RAF259 (15mer), 1h (14-3-3σ/C-RAF259 [3]; 1 h): 0% | % bound, C-RAF259 (11mer), 8h (14-3-3σ/C-RAF259 [3]; 8 h): 5.6% and 0% | % bound, C-RAF259 (15mer), 8h (14-3-3σ/C-RAF259 [3]; 8 h): 0% | % bound, C-RAF259 (11mer), 16h (14-3-3σ/C-RAF259 [3]; 16 h): 5.6% | % bound, C-RAF259 (15mer), 16h (14-3-3σ/C-RAF259 [3]; 16 h): 0% | % bound, C-RAF259 (11mer), 24h (14-3-3σ/C-RAF259 [3]; 24 h): 5.6% and 2.9% | % bound, C-RAF259 (15mer), 24h (14-3-3σ/C-RAF259 [3]; 24 h): 0% | EC50 (14-3-3σ/C-RAF259 [4]): > 1000 µM | effect on phosphorylation of ERK (pERK [5]; HEK293T, 24 h, EGF stimulation, 23 at 10 μM): No effect | reduction of the N-RAS Q61L/C-RAF interaction (N-RAS Q61L/C-RAF): did not affect | 14-3-3/C-RAF NanoBRET fold stab. (14-3-3σ/C-RAF [6]): No increase | % bound, A-RAF214 (15mer), 1h (14-3-3σ/A-RAF214; 1 h): 0% | % bound, A-RAF214 (15mer), 8h (14-3-3σ/A-RAF214; 8 h): 0% | % bound, A-RAF214 (15mer), 16h (14-3-3σ/A-RAF214; 16 h): 0% | % bound, A-RAF214 (15mer), 24h (14-3-3σ/A-RAF214; 24 h): 0% | % bound, APO, 1h (14-3-3σ [7]): 0% | % bound, APO, 8h (14-3-3σ [7]): 0% | % bound, APO, 16h (14-3-3σ [7]): 1.9% | % bound, APO, 24h (14-3-3σ [7]): 2.9%

O=C(CCl)NCC1CCN(S(=O)(=O)c2ccc(Br)cc2)CC1 [Compound 22]
clients emerged as hits [8]: six

O=C(CCl)NCC1CCN(S(=O)(=O)c2ccc(Cl)c(F)c2)CC1 [Compound 29]
EC50 (14-3-3σ/C-RAF259 [4]): 1 ± 0.5 µM | EC50 (14-3-3σ/C-RAF [9]): 0.14 µM

O=C(CCl)N1CC2(CC(NS(=O)(=O)c3ccc(Br)c(F)c3)C2)C1 [Compound 64]
Fold stabilization (100 µM compound), C-RAF259 (10mer) (14-3-3σ/C-RAF259 [2]): 2 fold | % bound, C-RAF259 (11mer), 1h (14-3-3σ/C-RAF259 [3]; 1 h): 27.5% | % bound, C-RAF259 (11mer), 8h (14-3-3σ/C-RAF259 [3]; 8 h): 53.6% | % bound, C-RAF259 (11mer), 16h (14-3-3σ/C-RAF259 [3]; 16 h): 79% | % bound, C-RAF259 (11mer), 24h (14-3-3σ/C-RAF259 [3]; 24 h): 80.8% | EC50 (14-3-3σ/C-RAF259 [4]): 15 ± 2 µM | % bound, APO, 1h (14-3-3σ [7]): 9.9% | % bound, APO, 8h (14-3-3σ [7]): 27.2% | % bound, APO, 16h (14-3-3σ [7]): 47.2% | % bound, APO, 24h (14-3-3σ [7]): 65%

O=C(CCl)N1CC2(C1)CN(S(=O)(=O)c1ccc(Br)c(F)c1)CCO2 [Compound 70]
EC50 (14-3-3σ/C-RAF259 [4]): 2 µM | reduction of the N-RAS Q61L/C-RAF interaction (N-RAS Q61L/C-RAF): no clear trend | decrease in C-RAF homodimer formation (C-RAF/C-RAF): ~20%

O=C(CCl)N1CC2(C1)CN(S(=O)(=O)c1ccc(Br)cc1)CCO2 [Compound 78]
EC50 (14-3-3σ/C-RAF259 [4]): 2 ± 1 µM | reduction of the N-RAS Q61L/C-RAF interaction (N-RAS Q61L/C-RAF): no clear trend | solubility in the assay conditions [10]: poor solubility | decrease in C-RAF homodimer formation (C-RAF/C-RAF): ~20% | EC50 (14-3-3σ/C-RAF [9]): 1.2 µM

O=C(CCl)N1CC2(C1)CN(S(=O)(=O)c1ccc(I)cc1)CCO2 [Compound 79]
EC50 (14-3-3σ/C-RAF259 [4]): 2 ± 1 µM | solubility in the assay conditions [10]: poor solubility

O=C(CCl)N1CCC2(CCN(S(=O)(=O)c3ccc(Br)c(F)c3)C2)C1 (stereo not drawn) [Compound 86]
EC50 (14-3-3σ/C-RAF259 [4]): 1 ± 1 µM | EC50 (14-3-3σ/C-RAF [9]): 0.3 µM

CNc1ncc2cc(-c3cc(NC(=O)NCCC(C)(C)C)c(F)cc3C)c(C)nc2n1 [LY3009120, reference compound]
time taken to modulate the pathway (pERK [5]): 3 h

CC(=O)Nc1cccc(-n2c(=O)n(C3CC3)c(=O)c3c(Nc4ccc(I)cc4F)n(C)c(=O)c(C)c32)c1 [Trametinib, reference compound]
time taken to modulate the pathway (pERK [5]): 3 h | effect on pERK with the C38N mutant (pERK [11]): same effect
